Experimental data from ChEMBL document CHEMBL1129152, “Synthesis of constrained thiorphan analogs as inhibitors of neutral endopeptidase” (Bioorg Med Chem Lett, 1996).

Biological target: T1, Neprilysin (Rattus norvegicus, UniProt P07861)
T1 sequence (P07861 whole entry): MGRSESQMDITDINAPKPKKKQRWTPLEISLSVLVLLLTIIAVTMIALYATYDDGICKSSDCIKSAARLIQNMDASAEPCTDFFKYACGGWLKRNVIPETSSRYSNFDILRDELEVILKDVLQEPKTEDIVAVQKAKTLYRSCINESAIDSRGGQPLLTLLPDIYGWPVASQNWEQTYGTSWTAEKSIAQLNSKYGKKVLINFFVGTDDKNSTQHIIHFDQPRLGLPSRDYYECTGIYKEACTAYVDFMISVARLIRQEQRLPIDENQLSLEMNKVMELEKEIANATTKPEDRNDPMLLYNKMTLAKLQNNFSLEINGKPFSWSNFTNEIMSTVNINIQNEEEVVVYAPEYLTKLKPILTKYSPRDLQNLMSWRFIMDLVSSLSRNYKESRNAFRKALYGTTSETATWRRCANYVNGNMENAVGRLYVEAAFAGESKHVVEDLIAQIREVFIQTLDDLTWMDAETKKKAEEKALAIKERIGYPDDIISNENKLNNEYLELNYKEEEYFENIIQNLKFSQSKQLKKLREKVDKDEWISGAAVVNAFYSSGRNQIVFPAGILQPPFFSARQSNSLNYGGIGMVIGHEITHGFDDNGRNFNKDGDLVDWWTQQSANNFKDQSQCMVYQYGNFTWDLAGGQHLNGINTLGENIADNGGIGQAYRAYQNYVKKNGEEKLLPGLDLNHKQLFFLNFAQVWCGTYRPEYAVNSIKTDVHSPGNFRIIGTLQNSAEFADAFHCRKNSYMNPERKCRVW
Experiment: Inhibition of neutral endopeptidase (NEP).

Row | SMILES | Ki [nM]
1 | CC(C)[C@H](NC(=O)C1(CS)CCc2ccccc2C1)C(=O)OCc1ccccc1 (some centres undefined) | 2
2 | O=C(CS)N[C@H]1Cc2ccccc2C2CCC[C@@H](C(=O)O)N2C1=O (some centres undefined) | 5
3 | COC(=O)[C@H](Cc1ccccc1)NC(=O)C1(CS)CCc2ccccc2C1 (some centres undefined) | 4
4 | O=C(OCc1ccccc1)[C@H](Cc1ccc(O)cc1)NC(=O)C1(CS)CCc2ccccc2C1 (some centres undefined) | 0.5
5 | O=C(O)[C@@H]1CCCC2c3ccccc3C[C@H](CS)C(=O)N21 (some centres undefined) | > 300
6 | O=C(O)[C@@H]1CCCC2c3ccccc3C[C@@H](CS)C(=O)N21 (some centres undefined) | 45
7 | COC(=O)[C@H](CC(C)C)NC(=O)C1(CS)CCc2ccccc2C1 (some centres undefined) | 7
8 | O=C(CNC(=O)C1(CS)CCc2ccccc2C1)OCc1ccccc1 (centres undefined) | 0.4
9 | O=C(NCc1ccc2c(c1)OCO2)C1(CS)CCc2ccccc2C1 (centres undefined) | 14
10 | C[C@H](NC(=O)C1(CS)CCc2ccccc2C1)C(=O)OCc1ccccc1 (some centres undefined) | 0.3
11 | O=C(CNC(=O)C1(CS)Cc2ccccc2C1)OCc1ccccc1 | 10
12 | O=C(O)C1CCC(NC(=O)C2(CS)CCc3ccccc3C2)CC1 (centres undefined) | 0.6
13 | O=C(O)CCCCCCNC(=O)C1(CS)CCc2ccccc2C1 (centres undefined) | 0.6
14 | COC(=O)CCNC(=O)C1(CS)CCc2ccccc2C1 (centres undefined) | 0.2
